Experiments:
[1] = biological target: CDK12/CycK (Homo sapiens, UniProt Q9NYV4); assay: CDK12/CycK high ATP kinase assay (TR-FRET, 2 mM ATP); format: biochemical; details: 2 mM ATP (high ATP); median; read-out: CDK12/CyclinK, 2 mM ATP (high ATP), IC50-[mol/l] (median)
Method in brief: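 His-tagged human CDK12/CycK (~0.75 nM) pre-incubated 15 min with compound, then 60 min at 22 °C with 2 mM ATP and 1 µM biotinylated peptide (HEPES pH 7.5, 20 mM MgCl2). EDTA stop; phospho-Ser62 antibody/Eu anti-rabbit and streptavidin-XL665 TR-FRET, 665/620 nm ratio normalised to give IC50.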

[2] = biological target: T1, CDK2/CycE (Homo sapiens, UniProt P24941); assay: CDK2/CycE kinase assay (TR-FRET, 2 mM ATP); format: biochemical; details: 2 mM ATP (high ATP); median; read-out: CDK2/CyclinE, 2 mM ATP (high ATP), IC50 (median)
T1 construct: purchased ProQinase GmbH (Freiburg, Germany); host or cells: insect cells (Sf9)
Method in brief: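 GST-tagged human CDK2 and CycE from Sf9 cells, about 10 ng/ml, pre-incubated 15 min at 22 °C with compound in Tris/HCl pH 8.0 buffer. Reaction with 2 mM ATP and 0.75 µM biotinylated peptide for 25 min at 22 °C. Phospho-RB antibody TR-FRET (665/620 nm ratio) read after 1 h; data normalised to no-inhibitor and no-enzyme controls.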

Sequence of CDK12/CycK (Q9NYV4 with tags, fused parts or gaps): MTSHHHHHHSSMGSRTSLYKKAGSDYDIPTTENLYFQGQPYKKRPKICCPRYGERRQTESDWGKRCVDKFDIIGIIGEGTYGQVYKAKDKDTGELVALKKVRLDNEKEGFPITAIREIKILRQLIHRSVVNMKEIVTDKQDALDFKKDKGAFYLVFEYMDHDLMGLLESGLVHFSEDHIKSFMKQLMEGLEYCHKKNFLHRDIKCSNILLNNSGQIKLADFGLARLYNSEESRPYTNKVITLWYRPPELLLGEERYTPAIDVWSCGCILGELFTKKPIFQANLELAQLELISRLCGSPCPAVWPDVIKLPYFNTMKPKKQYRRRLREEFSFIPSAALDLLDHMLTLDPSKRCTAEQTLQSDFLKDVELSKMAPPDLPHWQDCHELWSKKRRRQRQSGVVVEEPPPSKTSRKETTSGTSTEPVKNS
Sequence of CDK12/CycK (O75909 1-300 partner limits assumed): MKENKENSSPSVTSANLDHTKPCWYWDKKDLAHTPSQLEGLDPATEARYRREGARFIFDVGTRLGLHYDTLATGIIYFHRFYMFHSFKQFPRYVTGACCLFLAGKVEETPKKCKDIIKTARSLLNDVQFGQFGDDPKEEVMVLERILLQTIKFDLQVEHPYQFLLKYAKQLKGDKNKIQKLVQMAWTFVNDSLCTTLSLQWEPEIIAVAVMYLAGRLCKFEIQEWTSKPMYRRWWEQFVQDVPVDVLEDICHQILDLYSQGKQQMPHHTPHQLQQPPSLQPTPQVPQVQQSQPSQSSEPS

Compound | IC50 [1] | IC50 [2]
Clc1cccc(-c2cnc(CNc3nc(N4CCOCC4)nc4c(Br)cnn34)[nH]2)c1 [Example 81, 8-bromo-N-{[5-(3-chlorophenyl)-1H-imidazol-2-yl]methyl}-2-(morpholin-4-yl)pyrazolo[1,5-a][1,3,5]triazin-4-amine] | 765 nM | 4030 nM
Brc1cnn2c(NCc3ncc(-c4cccnc4)[nH]3)nc(N3CCOCC3)nc12 [Example 84, 8-bromo-2-(morpholin-4-yl)-N-{[5-(pyridin-3-yl)-1H-imidazol-2-yl]methyl}pyrazolo[1,5-a][1,3,5]triazin-4-amine] | 2090 nM | 4840 nM
Fc1ccccc1-c1nnc(CNc2nc(N3CCOCC3)nc3c(Br)cnn23)[nH]1 [Example 75, 8-bromo-N-{[5-(2-fluorophenyl)-4H-1,2,4-triazol-3-yl]methyl}-2-(morpholin-4-yl)pyrazolo[1,5-a][1,3,5]triazin-4-amine] | > 3770 nM | 2500 nM
COC(=O)C1CCN(c2nc(NCc3nc4ccccc4[nH]3)n3ncc(Br)c3n2)CC1 [Example 63, methyl 1-(4-{[(1H-benzimidazol-2-yl)methyl]amino}-8-bromopyrazolo[1,5-a][1,3,5]triazin-2-yl)piperidine-4-carboxylate] | 11500 nM | 6490 nM
OC[C@H]1CCCCN1c1nc(NCc2nnc(-c3ccccc3)[nH]2)n2ncc(Br)c2n1 [Example 71, [(2R)-1-(8-bromo-4-{[(5-phenyl-4H-1,2,4-triazol-3-yl)methyl]amino}pyrazolo[1,5-a][1,3,5]triazin-2-yl)piperidin-2-yl]methanol] | 4330 nM | 2230 nM
c1ccc(-c2nnc(CNc3nc(N4CCOCC4)nc4c(C5CC5)cnn34)[nH]2)cc1 [Example 93, 8-cyclopropyl-2-(morpholin-4-yl)-N-[(5-phenyl-4H-1,2,4-triazol-3-yl)methyl]pyrazolo[1,5-a][1,3,5]triazin-4-amine] | 2700 nM | 10500 nM

Further compounds by falling IC50 [1], results first:

IC50 [1] | IC50 [2] | Compound
5520 nM | 10600 nM | CC1(C)CN(c2nc(NCc3nnc(-c4ccccc4)[nH]3)n3ncc(Br)c3n2)CCO1 [Example 68, 8-bromo-2-(2,2-dimethylmorpholin-4-yl)-N-[(5-phenyl-4H-1,2,4-triazol-3-yl)methyl]pyrazolo[1,5-a][1,3,5]triazin-4-amine]
1890 nM | 1950 nM | Fc1ccccc1-c1cnc(CNc2nc(N3CCOCC3)nc3c(Br)cnn23)[nH]1 [Example 86, 8-bromo-N-{[5-(2-fluorophenyl)-1H-imidazol-2-yl]methyl}-2-(morpholin-4-yl)pyrazolo[1,5-a][1,3,5]triazin-4-amine]
1360 nM | 8550 nM | FC(F)(F)c1ccccc1-c1cnc(CNc2nc(N3CCOCC3)nc3c(Br)cnn23)[nH]1 [Example 88, 8-bromo-2-(morpholin-4-yl)-N-({5-[2-(trifluoromethyl)phenyl]-1H-imidazol-2-yl}methyl)pyrazolo[1,5-a][1,3,5]triazin-4-amine]
1020 nM | 2300 nM | Fc1ccc(-c2cnc(CNc3nc(N4CCOCC4)nc4c(Br)cnn34)[nH]2)cc1 [Example 66, 8-bromo-N-{[5-(4-fluorophenyl)-1H-imidazol-2-yl]methyl}-2-(morpholin-4-yl)pyrazolo[1,5-a][1,3,5]triazin-4-amine]
664 nM | 6090 nM | C[C@@H]1CN(c2nc(NCc3nc4ccccc4[nH]3)n3ncc(Br)c3n2)C[C@H](C)O1 [Example 73, N-[(1H-benzimidazol-2-yl)methyl]-8-bromo-2-[(2R,6S)-2,6-dimethylmorpholin-4-yl]pyrazolo[1,5-a][1,3,5]triazin-4-amine]
566 nM | 2300 nM | Fc1cccc(-c2cnc(CNc3nc(N4CCOCC4)nc4c(Br)cnn34)[nH]2)c1 [Example 79, 8-bromo-N-{[5-(3-fluorophenyl)-1H-imidazol-2-yl]methyl}-2-(morpholin-4-yl)pyrazolo[1,5-a][1,3,5]triazin-4-amine]

— patent US20230117034A1, “PYRAZOLOTRIAZINES” (Bayer Aktiengesellschaft, priority 2019, published 2023)
